From US8252832B2, “Kinesin inhibitors as cancer therapeutics” (Novartis AG, priority 2007, dated 2012)
Like-named read-outs stand apart in the source and are kept apart here.

Test system: cell lines derived from hematological malignancies
Assay: CellTiter-Glo, hematologic malignancy panel, mean of panel
Type: cell-based
Source text: Identification of tumor types that are the most sensitive to the KSP inhibitors of the present invention can be accomplished using an unbiased approach that uses several cell-based assays. The assays chosen were as follows: • CellTiter-Glo®. This is an assay designed to measure ATP concentration in a cell culture, and can be correlated to cell number. Briefly CellTiter-Glo® (Promega Corporation) is a homogeneous method using the single CellTiter-Glo® reagent to detect ATP wherein ATP in the assay drives the activity of a thermostable luciferase to create a luminescent signal which can then be measured and correlated with the number of viable cells. Briefly, for adherent cells, 1,000 to 5,000 cells/well were plated in 96-well plates (100 μl/well) and let to adhere for 24 hours before being treated with drug. For non-adherent cells, 1,000 to 10,000 cells/well were plated in 96-well plates (100 μl/well) and immediately treated with drug. Drug dilutions were prepared in DMSO at 1000 times the final concentration. These dilutions were then diluted 1/100 in growth media before being added to the cells (11 μl/well) to achieve the desired final concentration. […] The enzymatic reaction is coupled to a chemical reaction that uses a tetrazolium salt to form a formazan that is red and can be detected by its absorbance at 490 nm. […]

SMILES: CC(C)(C)[C@H](c1nc(-c2cc(F)ccc2F)cn1Cc1ccccc1)N(CC[C@H](N)CF)C(=O)CO [Compound IIa]
- GI50 (GI50 in nM, read-out: Log(GI50), arithmetic mean of panel (converted)): 0.339 nM
- GI50 (read-out: GI50, geometric mean of panel): 0.34 nM
